Assay results taken from patent publication US7939091B2, “Biorational repellents obtained from terpenoids for use against arthropods” (Iowa State University Research Foundation, Inc., priority 1999, dated 2011).

Experiments:
[1] = test system: German cockroach (Blattella germanica); assay: Choice test arena repellency bioassay, adult male German cockroach, 300-second test; format: in vivo; conditions: for Mean Treated / Mean Untreated: 300-second test; for % repellency: (untreated − treated/300)*100
Method: Test Procedure. Repellency bioassays were conducted to assess the repellent properties of compositions containing catnip steam distillate (nepetalactone), Z,E-nepetalactone, E,Z-nepetalactone and DEET against cockroaches. Certified acetone and certified hexane were also tested in order to evaluate solvent effects. (DEET was dissolved in acetone, because DEET is insoluble in hexane. The tested compounds were dissolved in hexane because hexane was the solvent used to extract these compounds from the distillate). One Whatman 125-mm round filter paper was cut in half. One side was treated with one (1) ml of the test compound and the other side was treated with one (1) ml of solvent. The papers were allowed to dry in a fume hood for approximately two (2) minutes before being placed in a 150-mm Petri dish arena. The relative position of the treated side (i.e., to the right or left) of the dish was randomized using a random number table. […] The hole was stopped using a small piece of tape to prevent the insect from escaping. One adult male German cockroach (Blattella germanica) was selected from the colony and dropped into the pre-formed hole in the Petri dish lid. […] Ten (10) replications were performed for each test compound. Results. Using mean values and their related Standard Error of the Mean values (SEM), repellency of the selected samples was determined as shown in Table 2. Significance due to concentration was determined using ANOVA. […] Comparisons between test compounds were made using a two-tailed paired t-test (“paired t-test”) which indicates “differences” as is known in the art and shown in Table 4 (as compared with a “one-tailed” test, which indicates “greater or less than”). Testing Procedure. The same procedure described in Example 1 was used.

[2] = test system: German cockroach, Blattella germanica; assay: Choice-test arena bioassay (contact irritancy), German cockroach, Example 6; format: in vivo; conditions: 300-second period
Method: (§1) A choice-test arena was used to assess irritancy of test solutions to two common household insect pests, the German cockroach (Blattella germanica) and the house fly (Musca domestica). Catnip essential oil obtained by steam distillation of catnip obtained from the same source as described in the above examples, and the two major components of its essential oil, Z,E-nepetalactone and E,Z-nepetalactone (isolated from the essential oil by preparative TLC), were evaluated for behavioral effects of contact irritancy to the German cockroach. The TLC was performed as described in McElvain, S. M. et al., J. Am. Chem. Soc., 1941, 63, 1558-1563. Catnip essential oil and its major constituent Z,E-nepetalactone were tested against the house fly. N,N-diethyl-m-toluamide (DEET) (Aldrich, St. Louis, Mo.) served as a positive control for the choice-test arena assay and as a point of comparison for measuring insect behavioral effects that result from current commercial insect repellents. Test solutions ranging from 10% to 0.1% (vol/vol) active ingredient (a.i.) were made up in acetone and then delivered on to a filter paper for solvent evaporation. […] Choice-test are for German cockroaches and house flies were constructed from plastic Petri dishes. One-half of a 12.5-cm dia. filter paper was treated with 1 ml test solution, and the other was treated with 1 ml of only solvent (control). Both halves of the filter paper were placed in the choice-test arena. Position of the treated filter paper was randomized using a random-number table.
(§2) Individual German cockroaches or house flies were placed in each choice-test arena through a centered hole in the lid of the Petri dish and evaluated for a 300-second period. The amount of time the insect spent on the treated and untreated filter papers were recorded and used to calculate a percentage repellency value: Percentage Repellency=((Time on Untreated-Time on Treated)/300)×100
(§3) Ten replicates of each treatment solution were tested for both German cockroaches and house flies. Details of this assay design and some results have previously been described.

[3] = test system: antennectomized male German cockroaches; assay: Choice test arena behavioral assay of antennectomized male cockroaches; format: in vivo, Blattella germanica; conditions: Annectomized male cockroaches
Method: Testing Procedure. Male cockroaches were antennectomized by using a razor blade to remove the antennae as close to the head as possible. The cockroaches were allowed to recover from the procedure for 24 hours before being exposed to the test compounds in the bioassay described in Example 1. Results.

[4] = test system: yellow fever mosquitoes, Aedes aegypti; assay: Static-air repellency chamber, spatial and contact repellency, adult female yellow fever mosquitoes; format: in vivo; conditions: application rate 78.6 μg/cm^2
Method: Test Equipment. In this testing, a static air repellency chamber was used. The apparatus consisted of a 9×60-cm section of glass tubing with a 2-cm hole drilled at the midpoint along the length for central introduction of the insects. All of the testing was conducted in an environmental chamber at ambient temperatures.
Test Methods. The data for spatial repellency was collected at 15 minutes after the introduction of female yellow fever mosquitoes into a static air repellency chamber. Data for the contact repellency was collected after three hours. The concentrations used in the tests are 1% solution (1 ml of it on a 9-cm diameter filter paper). One (1) ml of a 1% (wt/vol) solution of repellent substance containing hexane as a carrier was pipetted onto a 9-cm diameter filter paper results in a concentration of 157 μg/cm^2. The solution contained the desired mass of compound to be tested added to the desired volume of hexane, e.g., for a 1% solution of catnip essential oil, […] was added to 100 ml of hexane.
One milliliter of the solution was applied to one half of a 9-cm diameter round filter paper with an area of 63.6 cm^2 and then allowed to dry before testing. […] Treated filter papers were placed inside the lids of 9-cm glass petri dishes, and placed over the ends of the glass tube. The position of the treated side, to the right or to the left, was selected by using a random-number table. Approximately fifteen unmated adult female mosquitoes were anaesthetized with CO2 and then introduced to the 9×60-cm glass cylinder through the centered 2-cm hole. Timing began 2 minutes after mosquito introduction, and mosquito distribution inside the static-air choice-test apparatus was observed over a 15-minute period for each treatment to determine spatial repellency. Basically the number of mosquitoes in the non-treated half were considered to be repelled and were counted. Percent repellency was considered to be: (Number of Individuals on Untreated Half−Number of Individuals on Treated Half)/15)×100. Contact repellency was defined in this assay as 100% avoidance of the treated filter paper-after three hours. The experimental design was a completely randomized design using six replications of each treatment.
All test methods were the same as described in Example 7, except spatial repellency over a longer period.
Test Methods. […] Also only three replications were used instead of six.

[5] = test system: house fly, Musca domestica; assay: Choice-test arena bioassay (contact irritancy), house fly; format: in vivo; conditions: 300-second period
Method: as §1, §2, §3

[6] = 0.1% test solution vs solvent-treated half, male
[7] = 0.5% test solution vs solvent-treated half, male
[8] = dose 16 μg/cm^2, male B. germanica, in 300 seconds
[9] = dose 80 μg/cm^2, male B. germanica, in 300 seconds
[10] = 1% test solution vs solvent-treated half, male
[11] = 5% test solution vs solvent-treated half, male

Compound: CC(C)=CCc1c2c(c3occ(-c4ccc(O)cc4)c(=O)c3c1O)C=CC(C)(C)O2 [Osajin, osajin]
- Mean Treated ([1]; amount used 0.5% solution): 117 s
- Mean Untreated ([1]; amount used 0.5% solution): 184 s
- % repellency ([1]; amount used 0.5% solution): 22%
- Mean Treated ([1]; amount used 1% solution): 103 s
- Mean Untreated ([1]; amount used 1% solution): 197 s
- % repellency ([1]; amount used 1% solution): 31%

Compound: CC(C)=CCc1c2c(c3occ(-c4ccc(O)c(O)c4)c(=O)c3c1O)C=CC(C)(C)O2 [Pomiferin, pomiferin]
- Mean Treated ([1]; amount used 1% solution): 138 s
- Mean Untreated ([1]; amount used 1% solution): 163 s
- % repellency ([1]; amount used 1% solution): 8.3%

Compound: c1ccc2ccccc2c1 [Naphthalene, reference compound]
- Mean Treated ([1]; amount used 1% solution): 117 s
- Mean Untreated ([1]; amount used 1% solution): 184 s
- % repellency ([1]; amount used 1% solution): 22%

Compound: CC1=COC(=O)C2[C@@H]1CC[C@@H]2C (stereo partly drawn) [E,Z-Nepetalactone, trans-cis nepetalactone]
- Percentage Repellency ± SEM ([2]; application rate 16 μg/cm^2): 46.4 ± 11.0b %
- Percentage Repellency ± SEM ([2]; application rate 80 μg/cm^2): 79.4 ± 3.5c %
- Mean seconds on treated side ± SEM ([3]; 80 μg/cm^2): 153 ± 15.2 s
- Mean seconds on untreated side ([3]; 80 μg/cm^2): 149 ± 15.3 s
- Mean Treated [1, 6]: 76.7 s
- Mean Untreated [1, 6]: 216 s
- times less time on the treated side as compared with the untreated side ([1]; 0.5%): ~8 times
- Mean Treated [1, 7]: 31.7 s
- Mean Untreated [1, 7]: 270 s
- Mean seconds on treated side ± SEM ([1]; Non-antennectomized male cockroaches, 80 μg/cm^2): 31.7 ± 5.2 s
- % repellency ([1]; dose 16 μg/cm^2): 46%
- Mean seconds on treated side ± SEM [1, 8]: 76.7 ± 13.7 b seconds
- % repellency ([1]; dose 80 μg/cm^2): 79%
- Mean seconds on treated side ± SEM [1, 9]: 31.7 ± 5.2 c seconds

Compound: CC(C)=CCCC(C)CC=O (stereo not drawn) [Citronellal, citronellal, reference compound]
- Average Percentage Repellency Over Time ([4]; 60 min): 10%
- Average Percentage Repellency Over Time ([4]; 120 min): 19%
- Average Percentage Repellency Over Time ([4]; 360 min): 1%
- Average Percentage Repellency Over Time ([4]; Initial): 79%

Compound: CCCCCCOC(=O)CCCCC [Hexyl hexanoate]
- Mean Treated ([1]; amount used 1% solution): 142 s
- Mean Untreated ([1]; amount used 1% solution): 158 s
- % repellency ([1]; amount used 1% solution): 5.2%

Compound: CC1=COC(=O)[C@H]2[C@@H]1CC[C@@H]2C [Z,E-Nepetalactone, cis-trans nepetalactone]
- Percentage Repellency ([5]; application rate 80 μg/cm^2): 87.3%
- Percentage Repellency ([5]; application rate 160 μg/cm^2): 69.3%
- Percentage Repellency ([5]; application rate 800 μg/cm^2): 96.0%
- Percentage Repellency ± SEM ([2]; application rate 16 μg/cm^2): 16.1 ± 7.4a %
- Percentage Repellency ± SEM ([2]; application rate 80 μg/cm^2): 15.4 ± 6.9a %
- Percentage Repellency ± SEM ([2]; application rate 160 μg/cm^2): 56.8 ± 7.8b %
- Percentage Repellency ± SEM ([2]; application rate 800 μg/cm^2): 68.2 ± 5.7b %
- Mean seconds on treated side ± SEM ([3]; 160 μg/cm^2): 121 ± 10.6 s
- Mean seconds on untreated side ([3]; 160 μg/cm^2): 180 ± 10.5 s
- Mean Treated [1, 6]: 127 s
- Mean Untreated [1, 6]: 176 s
- Mean Treated [1, 7]: 128 s
- Mean Untreated [1, 7]: 174 s
- Mean Treated [1, 10]: 65.4 s
- Mean Untreated [1, 10]: 236 s
- times less time on the treated side as compared with the untreated side ([1]; 5%): ~5 times
- Mean Treated [1, 11]: 47.3 s
- Mean Untreated [1, 11]: 252 s
- Mean seconds on treated side ± SEM ([1]; Non-antennectomized male cockroaches, 160 μg/cm^2): 65.4 ± 11.8 s
- % repellency ([1]; dose 16 μg/cm^2): 16%
- Mean seconds on treated side ± SEM [1, 8]: 127 ± 11.2 a seconds
- % repellency ([1]; dose 80 μg/cm^2): 15%
- Mean seconds on treated side ± SEM [1, 9]: 128 ± 10.4 a seconds
- % repellency ([1]; dose 160 μg/cm^2): 57%
- Mean seconds on treated side ± SEM ([1]; dose 160 μg/cm^2, male B. germanica, in 300 seconds): 65.4 ± 11.8 b seconds
- % repellency ([1]; dose 800 μg/cm^2): 68%
- Mean seconds on treated side ± SEM ([1]; dose 800 μg/cm^2, male B. germanica, in 300 seconds): 47.3 ± 8.7 b seconds

Compound: CC1=CC[C@@]23[C@@H]([C@@H]12)[C@H](C(C)C)CC[C@H]3C [α-Cubebene, alpha-cubebene]
- Mean Treated ([1]; amount used 0.1% solution): 118 s
- Mean Untreated ([1]; amount used 0.1% solution): 182 s
- % repellency ([1]; amount used 0.1% solution): 21%
- Mean Treated ([1]; amount used 0.5% solution): 99.4 s
- Mean Untreated ([1]; amount used 0.5% solution): 211 s
- % repellency ([1]; amount used 0.5% solution): 36%
